For one data set, the system named is AR-dependent PCa lines. Nature of the data set: Cell viability assay (Cell-Titer GLO), GI50. The settings on record: Homo sapiens; five AR-dependent PCa lines, 96 h incubation. The format is cell-based. The method, then: (§1) Cell viability assays were performed by seeding the cells in 96-well plates at 2500-10000 cells/well (optimum density for growth) in a total volume of 100 μL complete media. Serially diluted compounds/drugs in 100 μL media were added to the cells 24 h post seeding. Following 96 h incubation, cell viability was assessed by Cell-Titer GLO (Promega, PR G7571). The measurements were normalized and regression curves were fitted to calculate GI50 using GraphPad Prism software.

Another data set deals with AR-negative cells. The data set can be described thus: Cell viability assay (Cell-Titer GLO), GI50. The conditions noted are these: Homo sapiens; three AR-negative cells, 96 h incubation. The format is cell-based. How it is done: as §1
For data set [1], the system named is DHT-induced AR target genes. The data set can be described thus: RNA-seq of DHT-stimulated VCaP and LNCaP cells. The format is cell-based, human. The conditions noted are these: 10 nM DHT with 100 nM THZ1. How it is done: For AR signaling stimulation experiments, cells were plated in complete media at required confluency. After 24 h cells were washed with DPBS and cultured in RPMI/DMEM without Phenol Red (Invitrogen, 11835030) and 10% charcoal-dextran stripped FBS (Gemini BioProducts, 100-119) for 72 h. Cells were then stimulated with 10 nM DHT for the specific time points.
RNA-seq libraries were constructed using the TruSeq sample Prep Kit V2 (Illumina) according to the manufacturer's instructions. Briefly, 1 μg of purified RNA was poly-A selected and fragmented with fragmentation enzyme. […] The DNA library was quantitated using Qubit and normalized to 4 nM prior to pooling. […] Library pools were clustered and run on Nextseq500 platform (Illumina Inc.) with single-end reads of 75 bases.
Single-end sequencing reads were demultiplexed using Illumina bcl2fastq, quality checked using FASTQC (bioinformatics.babraham ac uk/projects/fastqc), and aligned to the GRCh37 (release 27) genome using the STAR v2.5.1 aligner, with default settings. The read statistics generated by STAR v2.5.1 was used to ensure that the aligned reads in all samples were over 90% of the total reads. […]
Genes differentially expressed between any two sets of treatment were determined using DESeq2 (bioconductor.org/packages/release/bioc/html/DESeq.html), a statistical tool that employs shrinkage estimates to compute fold changes. […]

In data set [2] the test system is AR target proteins (ERG, MYC, PSA). Nature of the data set: Immunoblot of AR target proteins. The format is cell-based, human. The method, then: Cell lysates were prepared with RIPA buffer (Boston Bioproducts, BP-115DG)-10 mM Tris-HCl pH 7.5, 1 mM EDTA, 400 mM NaCl, 0.5% NP-40 and 1 mM DTT, supplemented with protease inhibitor cocktail (Pierce, A32965) and phosphatase inhibitor (Thermo, 1861280). For immunoblotting 200 μg total protein extract was boiled in sample buffer and 15-25 μg aliquots were separated by SDS-PAGE and transferred onto Polyvinylidene Difluoride membrane (GE Healthcare, IPVH00010). The membrane was incubated for one hour in blocking buffer [Tris-buffered saline, 0.1% Tween (TBS-T), 5% nonfat dry milk followed by overnight incubation on a rocker at 4° C. with the primary antibody. Following a wash with TBS-T, the blot was incubated with horseradish peroxidase-conjugated secondary antibody for 2 hrs on a rocker at room temperature. The blots were washed again and signals were visualized using enhanced chemiluminescence system as per manufacturer's protocol (GE Healthcare) or Kwik Quant Imager (Kindle Biosciences). […]
For orientation: Immunoblotting shows a protein as a band on a membrane.

For the molecule `CN(C)C/C=C/C(=O)Nc1ccc(C(=O)Nc2cccc(Nc3ncc(Cl)c(-c4c[nH]c5ccccc45)n3)c2)cc1` [THZ1], the results for the GI50 with AR-dependent PCa lines and with AR-negative cells were 50 to 170 nM and 400 to 600 nM, respectively. In data set [1], the “genome-wide DHT-induced differentially expressed AR target genes” value is reported as “completely reversed almost all”. In data set [2] (LNCaP and VCaP), the “AR target protein expression” value is listed as “decreased AR target protein expression”. In addition, the ERG levels result in data set [2] (VCaP, dose and time-dependent) is listed as “reduction in ERG levels”.

For orientation: GI50 means the concentration that inhibits growth by half. Lower therefore signals greater sensitivity of the cells.

The record behind these values is patent US12678438B2, “Treatment of cancer with CDK inhibitors” (THE TRUSTEES OF THE UNIVERSITY OF PENNSYLVANIA, priority 2019, dated 2026).
